Measurements as given in patent US6518300B2, “Treatment of lipid metabolic disorders using 5-(1,2-dithiolan-3-yl) valeric acid (α-lipoic acid) or its physiologically compatible salts” (BiRD Berolina innovative Research and Development GmbH, priority 1998, dated 2003).

Tests used:
[1] = same observational study; patients assigned to three groups by disease pattern (DGFF guidelines); assay type: in vivo
Protocol: A somewhat smaller group was treated with α-lipoic acid, but not with captopril (n=280). The treatment time extended over approximately 3 months. α-Lipoic acid was predominantly administered orally or parenterally in a dose of 600 mg per day. Captopril was ingested orally in daily doses of 12.5 to 50 mg.
In another consideration, the patients were assigned to three groups on the basis of their disease pattern, independent of the form of therapy, according to the “Guidelines of the German Association for Combatting Disorders of Lipid Metabolism and Their Sequelae DGFF (Lipid-Liga) e.V.” (Supplement to the German Ärzteblatte 1996; 4, 1-8):
1) isolated LDL-hypercholesterolemia (LDL>4.14, triglycerides≦2.2 mmoles/l);
2) combined LDL-hypercholesterolemia (LDL>4.14, triglycerides>2.2 mmoles/l);
3) isolated hypertriglyceridemia (LDL≦4.14, triglycerides>2.2 mmoles/l).
Standard values from the literature were set as limiting values (Wilson et al., Harrison's Principles of Internal Medicine, 12Edition, McGraw-Hill, 1991).
Sixty-two patients were placed in the first group, 112 patients in the second group, and 83 patients in the third group.

[2] = open observational study of blood lipid values under α-lipoic acid therapy; total population and individual-parameter analysis; assay type: in vivo, patients
Protocol: A somewhat smaller group was treated with α-lipoic acid, but not with captopril (n=280). The treatment time extended over approximately 3 months. α-Lipoic acid was predominantly administered orally or parenterally in a dose of 600 mg per day. Captopril was ingested orally in daily doses of 12.5 to 50 mg. At the beginning of therapy and at the end of observation after three months, the blood lipid values were optionally recorded. […] Because of the different basic treatment, the patients with combined therapy of α-lipoic acid and captopril and those with a single therapy with α-lipoic acid were placed in subgroups for this purpose: the 160 remaining patients (those with single therapy with captopril, n=154; those without treatment data n=6) were not included in the further analysis, since in this remaining group, only a small, incomparable number of patients had initial values corresponding to the range named under point 2 (triglycerides n=0, total cholesterol n=63, HDL cholesterol n=0, LDL cholesterol n=32). In a first analysis, the parameters were represented independently of one another, i.e., all patients, who had the initial values given below for the parameter, were included for each parameter: triglycerides >6 mmoles/l; total cholesterol >6 mmoles/l HDL cholesterol 0.7-0.8 mmole/l; LDL cholesterol >2.5 mmoles/l. The limits of the range were selected based on the studies reported in the literature (H. Thuro, Effective decrease in cholesterol and triglycerides with atorvastatin, Supplement in Der Internist 1996; 37 (8), 1-8).

[3] = doses of approximately 600 mg/day; treatment of polyneuropathy; cited from earlier work
[4] = group 2 combined LDL-hypercholesterolemia
[5] = group 2 combined LDL-hypercholesterolemia, 91 paired values, p<0.0001
[6] = total population, start vs end of observation after three months, predominantly 600 mg per day

Q: Which “HDL cholesterol, percent increase” value ([1]; group 1, 34 paired values, not significant) does the source give for O=C(O)CCCCC1CCSS1 (stereo not drawn) [α-lipoic acid, 5-(1,2-dithiolan-3-yl) valeric acid] here?
A: approximately 10%

Q: And the “total cholesterol, percent decrease” value ([1]; group 1 isolated LDL-hypercholesterolemia)?
A: 8%

Q: And the “total cholesterol, end value” ([1]; group 1 isolated LDL-hypercholesterolemia, initial 7.01 (n=62), end n=40)?
A: 6.49 mmol/L

Q: What about the “LDL cholesterol, mean percent decrease” value ([1]; group 1 isolated LDL-hypercholesterolemia, p<0.0001) of the same molecule?
A: 16%

Q: What about the “HDL cholesterol, end value” ([1]; group 1 isolated LDL-hypercholesterolemia, prior 1.29 (n=61), end n=34) of the same molecule?
A: 1.34 mmol/L

Q: What about the “triglycerides, average end value” ([1]; group 1 isolated LDL-hypercholesterolemia, prior 1.69, n=38, increase not significant) of the same molecule?
A: 1.70 mmol/L

Q: And the “LDL cholesterol, end value” ([1]; group 1 isolated LDL-hypercholesterolemia, prior 5.02, n=33)?
A: 4.33 mmol/L

Q: What about the “HDL cholesterol, percent increase” value [1, 4] of the same molecule?
A: 4.5%

Q: What about the “total cholesterol, percent decrease” value [1, 4] of the same molecule?
A: ~10%

Q: And the “triglycerides, absolute difference (decrease)” value [1, 5]?
A: 0.83 mmol/L

Q: And the “triglycerides, percent decrease” value [1, 5]?
A: 20%

Q: And the “LDL cholesterol, mean percent decrease” value ([1]; group 2 combined LDL-hypercholesterolemia, p<0.0001)?
A: 14%

Q: What about the “HDL cholesterol, end value” ([1]; group 2 combined LDL-hypercholesterolemia, prior 1.15 (n=108), end n=77) of the same molecule?
A: 1.15 mmol/L

Q: And the “LDL cholesterol, end value” ([1]; group 2 combined LDL-hypercholesterolemia, prior 5.42, n=74)?
A: 4.75 mmol/L

Q: What about the “total cholesterol, end value” ([1]; group 2 combined LDL-hypercholesterolemia, prior 7.71 (n=112), end n=94) of the same molecule?
A: 6.86 mmol/L

Q: And the “triglycerides, end value” ([1]; group 2 combined LDL-hypercholesterolemia, prior value 3.75, 91 paired values)?
A: 2.74 mmol/L

Q: And the “HDL cholesterol, percent increase” value ([1]; group 3, 59 paired values, p<0.01)?
A: approximately 15%

Q: And the “total cholesterol, percent decrease” value ([1]; group 3 isolated hypertriglyceridemia)?
A: about 5%

Q: And the “LDL cholesterol, end value” ([1]; group 3 isolated hypertriglyceridemia, initial 3.29, n=59, change not significant)?
A: 3.23 mmol/L

Q: What about the “total cholesterol, end value” ([1]; group 3 isolated hypertriglyceridemia, initial 6.31 (n=83), end n=67) of the same molecule?
A: 5.88 mmol/L

Q: What about the “triglycerides, percent reduction” value ([1]; group 3 isolated hypertriglyceridemia, n=67, p<0.0001) of the same molecule?
A: about 16%

Q: What about the “HDL cholesterol, end value” ([1]; group 3 isolated hypertriglyceridemia, prior 1.19 (n=83), end n=59) of the same molecule?
A: 1.31 mmol/L

Q: And the “triglycerides, end value” ([1]; group 3 isolated hypertriglyceridemia, prior 3.33 (n=83), n=67, p<0.0001)?
A: 2.69 mmol/L

Q: And the “decrease in ratio of LDL to HDL cholesterol” value ([1]; isolated LDL hypercholesterolemia (group 1))?
A: 16.97%

Q: What about the “ratio of LDL to HDL cholesterol, end value” ([1]; isolated LDL hypercholesterolemia (group 1), prior value 3.89) of the same molecule?
A: 3.23

Q: What about the “decrease in ratio of LDL to HDL cholesterol” value ([1]; mixed hyperlipidemia (group 2)) of the same molecule?
A: 12.31%

Q: And the “ratio of LDL to HDL cholesterol, end value” ([1]; mixed hyperlipidemia (group 2), prior value 4.71)?
A: 4.13

Q: And the “improvement in ratio of LDL to HDL cholesterol” value ([1]; patients without LDL cholesterinolemia (group 3), initial value in normal range)?
A: 10.51%

Q: And the “HDL cholesterol, mean end value” ([2]; patients with initial HDL 0.7-0.8 mmole/l, all patients, prior mean 0.76 (n=33), end n=13, increase not significant)?
A: 0.97 mmol/L

Q: What about the “percent increase of HDL cholesterol, on average” value ([2]; patients with initial HDL 0.7-0.8 mmole/l, not significant) of the same molecule?
A: over 20%

Q: And the “LDL cholesterol, mean end value” ([2]; patients with initial LDL >2.5 mmoles/l, all patients, prior mean 4.41 (n=336), end n=208, p<0.001)?
A: 4.03 mmol/L

Q: And the “percent decrease of LDL cholesterol, on average” value ([2]; patients with initial LDL >2.5 mmoles/l, in all groups)?
A: approximately 10%

Q: And the “mean percent decrease of total cholesterol” value ([2]; patients with initial total cholesterol >6 mmoles/l, in all groups)?
A: approximately 10%

Q: What about the “total cholesterol, mean end value” ([2]; patients with initial total cholesterol >6 mmoles/l, prior mean 7.32 (n=853), 570 paired values, p<0.0001) of the same molecule?
A: 6.57 mmol/L

Q: And the “triglycerides, mean end value” ([2]; patients with initial triglycerides >6 mmoles/l, all patients, prior mean 8.96 (n=33), end n=26, p<0.05, approx. 3 months)?
A: 7.16 mmol/L

Q: What about the “mean percentual decrease of triglycerides” value ([2]; patients with initial triglycerides >6 mmoles/l, in all groups (total, combined with captopril, single therapy)) of the same molecule?
A: greater than 20%

Q: What about the “observed changes of all lipid parameters, single therapy compared with combined therapy with captopril” value ([2]; single therapy of α-lipoic acid vs combined therapy with captopril) of the same molecule?
A: more strongly pronounced

Q: And the “change of HDL cholesterol” value [2, 6]?
A: slight increase

Q: And the “change of LDL cholesterol” value [2, 6]?
A: statistically striking decrease

Q: What about the “change of total cholesterol” value [2, 6] of the same molecule?
A: statistically striking decrease

Q: And the change of triglycerides ([2]; total population, start vs end of observation after three months, predominantly 600 mg per day oral or parenteral)?
A: statistically striking decrease

Q: What about the “compatibility of oral and parenteral therapy” value [3] of the same molecule?
A: very good
